Measured values: patent US5424303A, “Substituted aminophosphonate derivatives, process for their preparation and pharmaceutical compositions containing them” (Symphar SA, priority 1992, dated 1995)
pIC50: −log10 of the molar value.

What was measured:
xanthomas = conditions: patients suffering from familial hypercholesterolemia; cited from earlier work
[1] = test system: lipid peroxidation (rat liver homogenate); assay: Antioxidant activity, inhibition of iron induced lipid peroxidation in liver homogenate; type: biochemical, Wistar rat; conditions: FeSO4, 37° C., 2 h; <25 μM where IC50 was not determined
Procedure: The liver of a Wistar rat anesthetized with ether was collected and homogenized in 4 volumes of phosphate buffer (+4° C., pH 7.4) by means of a Potter. After centrifugation at 2000 rpm for 10 min the supernatant obtained was kept at +4° C. Lipid peroxidation was carried out in presence of FeSOhd according to the method described by A. T. Quitaniha et at, Ann.
The mixture contained 1.7 ml phosphate buffer, 0.2 ml homogenate and 0.1 ml of a 2 mM FeSO4 solution. The test compounds were added in a volume of 61 μl of ethanol or DMSO. Oxydation was carried out at 37° C. for 2 h and was stopped by the addition of 20 μl of 2% ethanolic solution of BHT.

[2] = test system: deposition of cholesterol in the arteries; conditions: hereditary atherosclerotic rabbits; cited from earlier work
plasma cholesterol = assay: Hypocholesterolemic activity, plasma cholesterol in mice fed test compound in diet; type: in vivo, OF1 strain mice; conditions: for change in vivo at 180 mg/kg/day: Mus musculus, feed or water, 240 h, read-out: Plasma Cholesterol (% Control), 0.1% compound in food, 10 days, ca. 180 mg/kg daily, mouse; for decrease plasma cholesterol by: mouse, 0.1% in food, 10 days
Procedure: A. Hypocholesterolemic activity
Mouse fed a normal diet is a convenient model which was proposed by several authors (P. Olivier et al, Atherosclerosis 70, 107-114, 1988) ,for the screening for hypocholesterolemic drugs. OF1 strain mice (Iffa Credo) weighing between 25 and 35 g were divided into 5 groups of 5 animals each, four groups received the test compounds and the fifth group served as control. The test compounds were dissolved in diethyl ether. The ether solution was added to food to obtain a final concentration of 0.1%. compound in food. Ether was then evaporated at room temperature. The animals were fed for 10 days, the dally food intake corresponds to ca. 180 mg/kg. After an overnight fast, they were sacrificed by decapitation under ether anesthesia. Blood samples were collected using EDTA as anticoagulant.
Plasma cholesterol was measured by an enzymatic test (DIAMED, Morat, Switzerland). The mean values of each group receiving the test or reference compounds were expressed as percent of mean value of the contemporary control.

Hep G2 cells = assay: Incorporation of 14C acetate in cholesterol synthesized by Hep G2 cells; type: cell-based; conditions: positive control
HMGCoA reductase = assay: Inhibition of the enzyme HMGCoA reductase; type: biochemical; conditions: positive control
CaCo-2 = type: cell-based
Excerpt: In these two tests the positive control Lovastatin (hypocholesterolemic drug with HMGCoA reductase inhibitory activity) inhibits the enzyme and the ^14 C acetate incorporation by more than 98%. The mechanism of hypocholesterolemia of this class is different and potentially unique.

Row | SMILES | pIC50 [1] | change in vivo at 180 mg/kg/day (plasma cholesterol) | further results
1 | CC(C)(Sc1cc(C(C)(C)C)c(O)c(C(C)(C)C)c1)Sc1cc(C(C)(C)C)c(O)c(C(C)(C)C)c1 [Probucol] | < 4.60 |  | effect on xanthomas (in words) (xanthomas): induces the regression of xanthomas; effect on deposition of cholesterol in the arteries (in words) [2]: prevents the deposition of cholesterol in the arteries
2 | CCOP(=O)(OCC)C(NCc1ccc2c(c1)OCO2)c1cc(C(C)(C)C)c(O)c(C(C)(C)C)c1 (stereo not drawn) [Compound 38, Diethyl α-(3,5-di-tert-butyl4-hydroxyphenyl)-N-piperonyl-aminomethylphosphonate] | 5.37 | -40% | decrease plasma cholesterol by (plasma cholesterol): more than 30%
3 | CCOP(=O)(OCC)C(NCCOc1ccccc1)c1cc(C(C)(C)C)c(O)c(C(C)(C)C)c1 (stereo not drawn) [Compound 28] | > 4.60 | 4% | 
4 | CCOP(=O)(OCC)C(NC(C)(C)C)c1cc(C(C)(C)C)c(O)c(C(C)(C)C)c1 (stereo not drawn) [Compound 1] | < 4.60 | 8% | 
5 | CCOP(=O)(OCC)C(NCCc1ccccc1)c1cc(C)c(O)c(C)c1 (stereo not drawn) [Compound 72] | < 4.60 | -1% | 
6 | CCOP(=O)(OCC)C(NC(c1ccccc1)c1ccccc1)c1cc(C(C)(C)C)c(O)c(C(C)(C)C)c1 (stereo not drawn) [Compound 32] | > 4.60 | -12% | 
7 | CCOP(=O)(OCC)C(Nc1ccc(Cl)cc1)c1cc(C(C)(C)C)c(O)c(C(C)(C)C)c1 (stereo not drawn) [Compound 6] | > 4.60 | -17% | 
8 | CCOP(=O)(OCC)C(NCc1ccc(OC)c(OC)c1)c1cc(C(C)(C)C)c(O)c(C(C)(C)C)c1 (stereo not drawn) [Compound 39] | 5.31 | -4% | 
9 | CCOP(=O)(OCC)C(Nc1nc2ccccc2s1)c1cc(C(C)(C)C)c(O)c(C(C)(C)C)c1 (stereo not drawn) [Compound 44, Diethyl α-(3.5-di-tert-butyl-4-hydroxyphenyl)-N-(2-benzothiazolyl)-aminomethylphosphonate] | > 4.60 | -17% | 
10 | COP(=O)(OC)C(NCCc1ccc(Cl)cc1)c1cc(C(C)(C)C)c(O)c(C(C)(C)C)c1 (stereo not drawn) [Compound 16] | 5.31 | -28% | 
11 | CCCCCc1ccc(NC(c2cc(C(C)(C)C)c(O)c(C(C)(C)C)c2)P(=O)(OCC)OCC)cc1 (stereo not drawn) [Compound 10] | 5.54 | 11% | 
12 | CCOP(=O)(OCC)C(NCCc1cccn1C)c1cc(C(C)(C)C)c(O)c(C(C)(C)C)c1 (stereo not drawn) [Compound 37] | 5.40 | 12% | 
13 | CCOP(=O)(OCC)C(NCCCc1ccccc1)c1ccc(O)c(O)c1 (stereo not drawn) [Compound 78] | > 4.60 | -5% | 
14 | CCOP(=O)(OCC)C(NCCCc1ccccc1)c1ccc(OC)cc1 (stereo not drawn) [Compound 79] | < 4.60 | 9% | 
15 | CCOP(=O)(OCC)C(NC1CCCCC1)c1cc(C(C)(C)C)c(O)c(C(C)(C)C)c1 (stereo not drawn) [Compound 65] | > 4.60 | 7% | 
16 | CCOP(=O)(OCC)C(NCCCCc1ccccc1)c1cc(C(C)(C)C)c(O)c(C(C)(C)C)c1 (stereo not drawn) [Compound 27, Diethyl α-(3 ,5-di-tert-butyl-4-hydroxyphenyl)-N-(4-phenylbutyl)-aminomethylphosphonate] | 5.68 | -43% | decrease plasma cholesterol by (plasma cholesterol): more than 30%

Row | SMILES | pIC50 [1] | change in vivo at 180 mg/kg/day (plasma cholesterol) | further results
17 | CCOP(=O)(OCC)C(Nc1ccc(O)c(C)c1)c1cc(C(C)(C)C)c(O)c(C(C)(C)C)c1 (stereo not drawn) [Compound 5] | 5.89 | 2% | 
18 | CCOP(=O)(OCC)C(NCCc1ccc(O)cc1)c1cc(C(C)(C)C)c(O)c(C(C)(C)C)c1 (stereo not drawn) [Compound 15] | > 4.60 | -18% | 
19 | CCOP(=O)(OCC)C(NCCc1ccc(Cl)cc1)c1cc(C(C)(C)C)c(O)c(C(C)(C)C)c1 (stereo not drawn) [Compound 17, Diethyl α-(3,5-di-tert-butyl-4-hydroxyphenyl)-N-[2-(4-chlorophenyl)ethyl]-aminomethylphosphonate] | 5.28 | -43% | decrease plasma cholesterol by (plasma cholesterol): more than 30%
20 | CCCCOP(=O)(OCCCC)C(NCCCc1ccccc1)c1cc(C(C)(C)C)c(O)c(C(C)(C)C)c1 (stereo not drawn) [Compound 25] | > 4.60 | -4% | 
21 | CCOP(=O)(OCC)C(c1cc(C(C)(C)C)c(O)c(C(C)(C)C)c1)N(C)Cc1cccnc1 (stereo not drawn) [Compound 49, Diethyl α-(3.,5-di-tert-butyl-4-hydroxyphenyl)-N-methyl-N-(3-picolyl)aminomethylphosphonate] | 4.89 | -19% | 
22 | CCOc1ccc(NC(c2cc(C(C)(C)C)c(O)c(C(C)(C)C)c2)P(=O)(OCC)OCC)cc1 (stereo not drawn) [Compound 9] | > 4.60 | -31% | decrease plasma cholesterol by (plasma cholesterol): more than 30%
23 | CCOP(=O)(OCC)C(NC1CC(C)(C)NC(C)(C)C1)c1cc(C(C)(C)C)c(O)c(C(C)(C)C)c1 (stereo not drawn) [Compound 35] | < 4.60 | -17% | 
24 | CC[C@H](C)C(=O)O[C@H]1C[C@@H](C)C=C2C=C[C@H](C)[C@H](CC[C@@H]3C[C@@H](O)CC(=O)O3)[C@H]21 [Lovastatin] |  |  | inhibition of 14C acetate incorporation, Hep G2 (Hep G2 cells): more than 98%; inhibition of HMGCoA reductase (HMGCoA reductase): more than 98%; inhibition of 14C acetate incorporation, CaCo-2 (CaCo-2): more than 98%
25 | CCOP(=O)(OCC)C(Nc1ccc2c(c1)Cc1ccccc1-2)c1cc(C(C)(C)C)c(O)c(C(C)(C)C)c1 (stereo not drawn) [Compound 48] | > 4.60 | 3% | 
26 | CCOP(=O)(OCC)C(NCCc1ccccc1)c1cc(C(C)C)c(O)c(C(C)C)c1 (stereo not drawn) [Compound 74] | 5.36 | -16% | 
27 | CC(C)OP(=O)(OC(C)C)C(NCCc1ccc(Cl)cc1)c1cc(C(C)(C)C)c(O)c(C(C)(C)C)c1 (stereo not drawn) [Compound 19] | 5.52 | -33% | decrease plasma cholesterol by (plasma cholesterol): more than 30%
28 | CCCOP(=O)(OCCC)C(c1cc(C(C)(C)C)c(O)c(C(C)(C)C)c1)N(CCCc1ccccc1)C(C)=O (stereo not drawn) [Compound 61] | > 4.60 | -43% | decrease plasma cholesterol by (plasma cholesterol): more than 30%
29 | COP(=O)(OC)C(NCCCc1ccccc1)c1cc(C(C)(C)C)c(O)c(C(C)(C)C)c1 (stereo not drawn) [Compound 21] | > 4.60 | -33% | decrease plasma cholesterol by (plasma cholesterol): more than 30%
30 | CC(=O)N(CCCc1ccccc1)C(c1cc(C(C)(C)C)c(O)c(C(C)(C)C)c1)P(=O)(OC(C)C)OC(C)C (stereo not drawn) [Compound 62] | > 4.60 | -32% | decrease plasma cholesterol by (plasma cholesterol): more than 30%
31 | CCOP(=O)(OCC)C(NC1CCc2ccccc21)c1cc(C(C)(C)C)c(O)c(C(C)(C)C)c1 (stereo not drawn) [Compound 46] | 5.42 | -8% | 
